The values below come from US20230339983A1, “FLUORESCENT COMPOUNDS SPECIFIC FOR PLURIPOTENT STEM CELLS AND REPROGRAMMING-READY CELLS AND METHODS OF USING THE SAME” (Agency for Science, Technology and Research, priority 2018, published 2023).

The subject of one data set is reprogramming ASCs. In words: BDL-E5 live staining time course of episomally reprogrammed ASCs on MG. Type of data set: cell-based, human. Here is the method: Episomal plasmids developed by Yamanaka's lab were obtained from Addgene: pCXLEhOct3/4-shp53-F (Addgene #27077), pCXLE-hSK (Addgene #27078), pCXLE-hUL (Addgene #27080) and pCXLE-EGFP (Addgene #27082) (Okita, et al. (2011). Nat Methods 8, 409-412). 1×10^6 cells were suspended together with 1 μg of each episomal vector in Nucleofector solution supplied in the Nucleofector Kit R (Lonza). Then the cells were transfected with the Program FF-113 on a Nucleofector 2b Device. The transfected cells were then cultured in ASC or DPSC medium (MSC medium) supplemented with 0.5 mM sodium butyrate, with daily media change. On Day 7 dpn, 1×10^5 viable cells were seeded over MEF feeders (GlobalStem) into one well of a 6-well plate for feeder-based iPS derivation; 2×10^5 viable cells were seeded for feeder-free iPS derivation into one well of a 6-well plate pre-coated with Matrigel (Corning). The next day, MSC medium was changed to feeder-based hES medium (DMEM/F12 supplemented with 20% knock out serum replacement, 1% GlutaMAX, 1% NEAA, Pen/Strep, 0.1 mM p-mercaptoethanol and 10 ng/ml b-FGF) or to feeder-free mTeSR1 (StemCell Technologies), supplemented with sodium butyrate. At 12 dpn, supplementation of sodium butyrate was stopped, and conditioned further with SMC4 cocktail (consisting of small molecules: PD0325901, CHIR99021, Thiazovivin, and SB431542 (FOCUS Biomolecules)) in hES medium/mTeSR1. This media supplement was continued until initial colony formation began.
Reprogrammed cells were immune-stained with fluorescent live cell stain TRA-1-60 (R&D Systems, GloLIVE NL557) as per manufacturer's instructions. After incubating with the live staining antibodies for 30 min and Hoechst 33342 for 10 min, cells were washed 3 times with PBS and images with the Cy5 and DAPI channels, respectively, were immediately captured.
Further experiments were carried out using BDL-E5. To determine whether BDL-E5 identifies the early stages of pluripotency, ASCs and DPSCs were reprogrammed using nucleofection of episomal vectors, and seeded onto MG-coated plates (feeder-free, viral-free reprogramming method). […]

Data set [1] in a line: Absorption and emission maxima of the probe. Type of data set: physicochemical. Here is the method: (§1) The chemical properties of the BDL library are previously described (Jeong et al., 2015). BDL-E5 is based on 4,4-difluoro-4-bora-3a,4a-diaza-s-indacene (BODIPY), with calculated mass of 528.3 and absorption maximum/emission maximum of 578/599 nm. Primary, secondary and tertiary screening of fluorescent probes on AiPS, ASCs, DiPS and DPSCs were performed as described previously (Im, et al. (2010). Angew Chem Int Ed Engl 49, 7497-7500; Kang, et al. (2011). Nat Protoc 6, 1044-1052) and in the Results section. Unless described otherwise, BDL-E5 and CDy1 images were acquired by the Tetramethylrhodamine (TRITC) channel of ImageXpress Micro High-Content Imaging System, which had the Adaptive Background Correction function enabled.

Data set [2] has as its system human iPS cells (AiPS, DiPS colonies). Put plainly: DOFLA screening (primary, secondary, tertiary) of fluorescent probes on iPS cells versus original somatic cells. Type of data set: cell-based. Here is the method:
as §1
A high-throughput system using in-house Diversity Orientated Fluorescence Library Approach (DOFLA) was employed to screen 46 fluorescent probes that the inventors predicted may specifically recognize pluripotent stem cells. To identify fluorescent probes that detected human pluripotent stem cells, ASCs, ASC-derived iPS (AiPS) cells, DPSCs, and DPSC-derived iPS (DiPS) cells were used. […] Cells were seeded onto 384-well plates (primary screen) or 96-well plates (secondary and tertiary screen) coated with mouse embryonic fibroblasts (MEF) or matrigel (MG) for DOFLA screening (FIG. 1A). After 48 h, cells were stained with library probes (500 nM) for 1 h. Fluorescence was imaged using the ImageXpress System under the following conditions: “No wash” (after 1 h probe incubation), “Wash 0 min” (after one wash with PBS), “Wash 60 min” (after wash and destain for 1 h) and “Wash 180 min” (after wash and destain for 3 h) (FIG. 1A).
Images were analyzed using the MetaXpress Image Acquisition and Analysis software. Following tertiary screening, two probes were shortlisted to develop further as pluripotent probes: BDL-E5 and CDy1. The chemical structure of BDL-E5 is depicted in FIG. 1B.
Secondary screening was performed to confirm that the probes selectively stained different iPS colonies. […] The BDL-E5^+ colonies were also positively stained for the pluripotency marker TRA-1-60.
Based on the primary and secondary screenings for live fluorescent probes that can specifically identify pluripotent cells, BDL-E5 and CDy1 were chosen as two probes to further analyze. Tertiary screening was performed using the two probes on AiPS colonies under the following probe staining conditions: No wash, Wash 0 min, Wash 60 min, and Wash 180 min.

The subject of another data set is BJ human fibroblasts. In words: Staining of BJ fibroblasts reprogrammed with lentiviral Yamanaka factors. Format: cell-based. The source says: (§2) iPS cells were also generated from DPSCs with the traditional protocol involving retroviral vectors expressing OCT4, SOX2, KLF4, and C-MYC (Sugii, et al. (2011). Nature Protoc 6(3):346-358). BJ human neonatal fibroblasts were reprogrammed using lentiviral OCT4, SOX2, KLF4, and C-MYC as described previously (Toh, et al. (2016). Cell Rep 15(12):2597-2607).
(§3) We also tested whether BDL-E5 worked for commonly used reprogramming methods and cell type. DPSCs were infected with retroviral vectors expressing four Yamanaka factors, and plated onto MEF. […] In addition, BJ human fibroblasts were reprogrammed with lentiviral Yamanaka factors.

Another data set has as its system reprogramming DPSCs. Put plainly: Staining of DPSCs reprogrammed with retroviral Yamanaka factors on MEF. Type of data set: cell-based, human. The following applies: retroviral OCT4, SOX2, KLF4, C-MYC.
Excerpt: as §2, §3

Regarding `COc1cc(F)c(/C=C/c2cc(C)c3n2[B-](F)(F)[N+]2=C(CCC(=O)NCCN(C)C)C=CC2=C3)cc1OC` [BDL-E5], in the data set on reprogramming ASCs (iPS colonies formed from ASCs), the “intensity of fluorescence of staining at 7, 14, 21, 28 dpn” value is on record as “increased with increasing time”. The “fate of stained cells tracked in the same field of view until colony formation” value in the data set with reprogramming ASCs (reprogrammed ASCs, staining every 48 h, 10-24 dpn) is on record as “only cells staining positive for BDL-E5 formed iPS colonies”. In addition, in the data set on reprogramming ASCs (reprogramming ASCs, MG-coated plates, episomal feeder-free), the “time at which positive cells/colonies were found” value is “around 14 dpn”. In data set [1], the absorption maximum is on record as 578 nm and the emission maximum was determined as 599 nm. Besides, the “intensity of fluorescence in human iPS cells compared with original somatic cells and MEFs” value in data set [2] (500 nM probe, 1 h, after tertiary screening) is recorded as “significantly increased intensity of fluorescence”. In addition, in data set [2] (primary screening, MEF- or MG-coated plates, 500 nM, 1 h, BDL-E5 No wash), the “staining of AiPS colonies compared with original somatic cells (ASCs)” value is recorded as “increased BDL-E5 staining”. In addition, the “staining of DiPS colonies compared with original DPSCs” value in data set [2] (secondary screening, MEF- or MG-coated plates, 500 nM, 1 h, BDL-E5 No wash) is recorded as “significantly increased fluorescence intensity”. Also, the “wash condition under which staining (signal-to-background ratio) was greatest” value in data set [2] (tertiary screening, AiPS colonies on MEF-coated plates) is listed as “No wash”. Moreover, in data set [2] (tertiary screening, AiPS colonies on MG-coated plates), the “wash condition under which staining was greatest” value is “No wash”. Besides, in the data set on BJ human fibroblasts, the “staining of reprogramming versus non-reprogramming cells” value is “successfully stained reprogramming, but not non-reprogramming cells” and the “staining strength compared with TRA-1-60” value was “stronger than that of TRA-1-60”. In the data set with reprogramming DPSCs, the “earliest time of staining of reprogramming cells” value was 7 dpi.
